In BindingDB's records for doi:10.1021/jm300844m (The University of Newcastle, 2013) one finds IC50 data, which are given here for two molecules.

For orientation: IC50 means the concentration at which inhibition is half-maximal.

A short description of the test: Inhibition of dyn2 in human U2OS cells assessed as clathrin-mediated endocytosis of Tfn after 30 mins.

Consider `CCCCCCCCNC(=O)/C(C#N)=C/c1cn(CCCN(C)C)c2ccccc12` [2-Cyano-N-octyl-3-(1-(3-dimethylaminopropyl)-1H-indol-3-yl)-acrylamide], for which the concentration for half-maximal inhibition (IC50) is 5 µM.

On to `CCCCCCCCNCc1cn(CCCN(C)C)c2ccccc12`, for which the IC50 was determined as 3.5 µM.
